Measured values reported in patent EP3720857B1, “2-OXO-5H-CHROMENO[4,3-B]PYRIDINES FOR USE IN THE TREATMENT OF HEPATITIS B” (Galapagos NV, priority 2017, dated 2019).

Tests used:
[1] = system: hepatitis virus B (HBV) infection; assay: HepG2 NTCP assay (HBcAg staining as marker of HBV infection); format: cell-based; conditions: HepG2-NTCP cells infected with HBV, HBV core antigen (HBcAg) as marker of infection
Summary of the method: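 HepG2-NTCP cells were infected with HBV (4% PEG, 1% DMSO) in the presence of compound overnight, then re-dosed and incubated 5 days at 37 °C. HBcAg immunofluorescence was imaged, with DAPI nuclei count taken as toxicity. Ten-point 1/3 dilutions gave % inhibition against 0.2% DMSO vehicle and 100 nM Myrcludex B, with dose-response curves fitted.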

[2] = system: hepatitis virus B (HBV) infection; assay: iCell hepatocytes assay, delayed assay (compounds added three days after HBV infection); format: cell-based; conditions: for EC50: Hepatitis B virus, Hepatocyte, HBs ELISA
Experimental: The principle of the iCell hepatocyte 2.0 96 well assay is to evaluate the inhibitory effect of a test compound on hepatitis virus B (HBV) infection. In this assays the HBV core antigen (HBcAg) and/or extracellular antigen (HBeAg) and/or surface antigen (HBsAg) are used as a marker for HBV infection. Nuclei count may be used as an indication for compound toxicity.
In the standard assay set-up HBV infection and compound addition are performed on the same day, in the delayed assay the compounds are added three days after HBV infection. iCell hepatocytes 2.0 are human hepatocytes derived from induced pluripotent stem cells (iPSc) purchased from Cellular Dynamics international (CDI, R1027).
At day 0, iCell hepatocytes 2.0 (CDI, R1027) are thawed and seeded in collagen I coated 96well plates at 112 000c/well (100µL) in plating medium (RPMI supplemented with B27 supplement, 20 ng/mL recombinant human oncostatin M (OSM), 25µg/mL gentamicin, 0.1µM Dexamethasone and iCell medium supplement provided by CDI). Plates are incubated at 37°C, 5% CO2 and daily refreshed with plating medium for the following four days.
On day 5 and 6, plates are refreshed with 100µL maintenance medium (RPMI supplemented with B27 supplement, 25µg/mL gentamicin, 0.1µM Dexamethasone, and iCell medium supplement provided by CDI) and incubated at 37°C, 5% CO2 until the following day.
On day 7 (day of infection), the maintenance medium is removed from the assay plates and cells are infected with 50 µL of HBV mix (HBV virus, 4% PEG, 0% or 2% DMSO in maintenance medium). The assay plates were incubated overnight at 37°C, 5% CO2.
At day 1 post infection (day8), 50µL of HBV mix is removed from the assay plates and refreshed with 100 µL of maintenance medium. The assay plates are incubated at 37°C, 5% CO2 for three days.
At day 4 post infection (day 11) and day 7 post infection (day14), the supernatant is removed and 100 µL of compound series diluted 1/500 in maintenance medium is added to the assay plates (8 point serial dilution using 1/3 dilution steps in 100% DMSO or 8 point serial dilution using ¼ dilution steps, normalized for 0.2% DMSO. The assay plates were incubated at 37°C, 5% CO2 for three days.
At day 10 post infection (day 17), 100µL of supernatant is harvested and frozen to -20°C. The cells are fixed with 50 µL of 3.7% formaldehyde and incubated for 30 min at room temperature. After fixation, cells are washed four times with phosphate buffer saline (PBS) with the plate washer (Select 405, microplate washer, Biotek) and subjected to HBc staining. harvested supernatant is used for HBe and/or HBs ELISA.
The assay plates are blocked with blocking buffer (2% FBS, 3% BSA, 0.2% TritonX100 in PBS) for 1 h at room temperature.
After blocking, the assay plates are tapped manually and incubated with 50 µL diluted primary antibody (1/700 Rabbit-anti-HBc Ag, Dako, B0586 or 1/350 Rabbit-anti-HBc Ag, Invitrogen, PA516368) in blocking buffer and incubated for 90 min at room temperature.
After 4 washes of PBST (1XPBS + 0.05% Tween) with the plate washer, the assay plates are incubated with 100 µL of secondary antibody (Donkey-anti-rabbit Alexa 488, Lifetechnologies, A21206) 1/500 diluted in blocking buffer and incubated for 60 min at room temperature in the dark, then washed 4 times with PBST on the plate washer and incubated with 100µL of DAPI (Sigma D9542, stock 5mg/mL) 1/10000 diluted in PBS for 15-30 min at room temperature in the dark.
Finally, the assay plates are read out on a InCell Analyzer 2200 (GE Healthcare). […]
After blocking, 30 µL of sample and HBe Ag standard (recombinant hepatitis B virus E antigen protein, 4mg/mL, Abcam, ab91273) are added to the plate. The HBe Ag standard is 1/3 diluted in blocking buffer starting from 1.25µg/mL. A vehicle control is also included. The plate is incubated for 30 min at room temperature.
After sample incubation, the plates are washed 4 times with PBST on a platewasher followed by 2 washed of PBS. […]

Row | SMILES | IC50 [1] | Delayed assay HBs ELISA % inhibition [2] | EC50 [2]
1 | COCCCOc1cc2c(cc1Cl)-c1c(cc(C(=O)O)c(=O)n1C1CC1)C(C1(C)COC1)O2 (stereo not drawn) [Compound 2, 9-chloro-1-cyclopropyl-8-(3-methoxypropoxy)-5-(3-methyloxetan-3-yl)-2-oxo-5H-chromeno[4,3-b]pyridine-3-carboxylic acid] | 0.001 to 1 nM | ++ (50-75%) | 0.001 to 20 nM
2 | COc1cc2c(cc1OC)-c1c(cc(C(=O)O)c(=O)n1C1CC1)C(C(C)C)O2 (stereo not drawn) [Compound 3, 1-cyclopropyl-5-isopropyl-8,9-dimethoxy-2-oxo-5H-chromeno[4,3-b]pyridine-3-carboxylic acid] | 1 to 20 nM | +++ (75-100%) | > 50 nM
3 | COCCCOc1cc2c(cc1Cl)-c1c(cc(C(=O)O)c(=O)n1C1CC1)C(C(C)C)O2 (stereo not drawn) [Compound 4, 9-chloro-1-cyclopropyl-5-isopropyl-8-(3-methoxypropoxy) -2-oxo-5H-chromeno[4,3-b]pyridine-3-carboxylic acid] | 0.001 to 1 nM | ++ (50-75%) | 0.001 to 20 nM
4 | COCCCOc1cc2c(cc1Cl)-c1c(cc(C(=O)O)c(=O)n1C1CCC1)C(C(C)C)O2 (stereo not drawn) [Compound 17, 9-chloro-1-cyclobutyl-5-isopropyl-8-(3-methoxypropoxy) -2-oxo-5H-chromeno[4,3-b]pyridine-3-carboxylic acid] | 0.001 to 1 nM | +++ (75-100%) | 0.001 to 20 nM
5 | COCCCOc1cc2c(cc1Cl)-c1c(cc(C(=O)O)c(=O)n1C1CC1)[C@@H](C1(C)COC1)O2 [Compound 47, (5S)-9-chloro-1-cyclopropyl-8-(3-methoxypropoxy)-5-(3-methyloxetan-3-yl)-2-oxo-5H-chromeno[4,3-b]pyridine-3-carboxylic acid] | 1 to 20 nM | ++ (50-75%) | 22 to 50 nM
